This is an account of results in the COVID Moonshot data (paper PMC11187573), “Identification of SARS-CoV-2 Mpro inhibitors through deep reinforcement learning for de novo drug design and computational chemistry approaches” (RSC Medicinal Chemistry, 2024).

Experiment [1] has as its target SARS-CoV-2 Main Protease (SARS-CoV-2) (UniProt P0DTD1).
Experiment [2] has the same target. Conditions: for inhibition: 50.0 µM.

In the case of `Cc1ccn2c(-c3ccc4[nH]ncc4c3)c(-c3ccc(F)cc3)nc2c1`, the inhibition in experiment [1] (20.0 µM) turned out to be 0.801%; in experiment [1] (50.0 µM), 0.943%; in experiment [2] it was 50.8%.
Regarding `O=C(Nc1ccc([N+](=O)[O-])cc1Cl)c1cc(Cl)ccc1O`, the values for the inhibition in experiment [1] (50.0 µM) and in experiment [2] were -22.8% and 21%, respectively.
As for `O=S(=O)(Cc1nc(-c2ccncc2)no1)Nc1ccc(N2CCCCC2)cc1`, the inhibition in experiment [1] (20.0 µM) is 3.34%; in experiment [1] (50.0 µM) it was 2.66%; in experiment [2], 0%.
As for `O=C(O)[C@@H](c1ccccc1)N1Cc2ccccc2C1=O` (stereo in doubt), the inhibition amounted to 96.3% in experiment [1] (20.0 µM) and 99.4% in experiment [1] (50.0 µM). The compound also registered an IC50 in experiment [2] of 1160 nM.
As to `COc1cc(OC)cc(Oc2cccc(CNC(=O)Cn3nnc4ccccc43)c2)c1`, the inhibition in experiment [1] (20.0 µM) was -3.39%; in experiment [1] (50.0 µM) it was 0.116%; in experiment [2], 0%.
`CCCCN(CCCNC(=O)Nc1cn(CC(C)C)c(=O)c2ccccc12)c1ccccc1`: the inhibition in experiment [1] (20.0 µM) was -4.26%; in experiment [1] (50.0 µM), -3.25%. The compound further returned an IC50 in experiment [2] of 82700 nM.
Take `CC(C)(C)NC(=O)CN1C(=O)C(=O)c2cccc(Br)c21`: the inhibition in experiment [1] (20.0 µM) is -2.41%; in experiment [1] (50.0 µM) it was 1.28%; in experiment [2], 0%.
Consider `CCc1cccc(CC)c1NC(=O)CN1C(=O)C(=O)c2cc(OC)ccc21`, for which the values for the inhibition in experiment [1] (20.0 µM), in experiment [1] (50.0 µM) and in experiment [2] were -6.58%, -0.841% and 13%, respectively.
On to `COc1ccccc1OCCN1C(=O)C(=O)c2cc(Br)cc(C)c21`, for which the inhibition in experiment [1] (20.0 µM) is -2.64%; in experiment [1] (50.0 µM), -0.707%; in experiment [2] it was 48.1%.
As for `Cc1cc(C)c(C#N)c(Sc2ncnc3c2nnn3Cc2ccccc2)n1`, the values for the inhibition in experiment [1] (20.0 µM) and in experiment [1] (50.0 µM) were 79% and 97.7%, respectively. Besides, the IC50 in experiment [2] was 255 nM.
Turning to `O=C(CCl)N1CCN(Cc2cnc(Cc3ccccc3)s2)CC1`, the inhibition stood at 41.5% in experiment [1] (20.0 µM), 51.6% in experiment [1] (50.0 µM) and 97.6% in experiment [2]. Also, the IC50 in experiment [2] was determined as 34600 nM.
Regarding `Cc1cccc(COC(=O)c2cccc3c2NC(=O)C3=O)c1`, the inhibition in experiment [1] (20.0 µM) was -1.1%; in experiment [1] (50.0 µM) it was 0.0384%; in experiment [2], 83.7%. In experiment [2], the half-inhibitory concentration (IC50) worked out at 17300 nM.
Regarding `CC(C(=O)Nc1cnccc1O)c1ccccc1` (stereo not given), the inhibition in experiment [1] (20.0 µM) amounted to 0.187%; in experiment [1] (50.0 µM), 0.74%; in experiment [2], 0%.
For the compound `CCN(Cc1cccc(-c2ccncc2)c1)C(=O)Cn1nnc2ccccc21`, the values for the inhibition in experiment [1] (20.0 µM), in experiment [1] (50.0 µM) and in experiment [2] were 3.37%, 15.6% and 0%, respectively.
Turning to `COc1ccccc1OCCNC(=O)c1cc(=O)[nH]c2cccc(F)c12`, the figures for the inhibition in experiment [1] (20.0 µM) and in experiment [1] (50.0 µM) were 8.74% and 12.5%, respectively. The same compound showed a half-maximal inhibitory concentration (IC50) in experiment [2] of 1830 nM.
`CC(C)(C)c1ccc(-c2nnc(Sc3cnc([N+](=O)[O-])s3)o2)cc1`: the IC50 in experiment [1] was found to be 4160 nM; in experiment [2] it was 164 nM. Moreover, the inhibition in experiment [1] (20.0 µM) came to 8.3%; in experiment [1] (50.0 µM), 69.9%.
`c1ccc(-c2cc(Sc3nnc(-c4cccs4)o3)n3ncnc3n2)cc1`: the inhibition in experiment [1] (20.0 µM) is 47.1%; in experiment [1] (50.0 µM) it was 96.7%. The compound also returned an IC50 in experiment [2] of 152 nM.
With `Cc1cc(Cl)cc(CC2CCN(C(=O)CCl)CC2)c1`, the inhibition in experiment [1] (20.0 µM) was 95.1%; in experiment [1] (50.0 µM), 98.3%; in experiment [2], 100%. In experiment [2], this compound came in with an IC50 of 1240 nM.
As for `Cc1ncccc1NC(=O)Cc1cccc(Cl)c1`, the inhibition is -4.59% in experiment [1] (20.0 µM), -3.9% in experiment [1] (50.0 µM) and 0% in experiment [2].
Turning to `COC(=O)c1c(C)n(S(C)(=O)=O)c2ccc(N(C(=O)c3ccco3)S(C)(=O)=O)cc12`, the results for the inhibition in experiment [1] (20.0 µM) and in experiment [1] (50.0 µM) were 47.7% and 97.8%, respectively. The IC50 in experiment [2] was found to be 335 nM.
For the compound `N#CCCCOC(=O)c1cccc2c1NC(=O)C2=O`, the inhibition in experiment [1] (20.0 µM) is -3.65%; in experiment [1] (50.0 µM), -1.22%; in experiment [2] it was 0%.
Regarding `C=CC(=O)N1CCN(S(C)(=O)=O)CC1c1ccccc1` (stereo not given), the inhibition in experiment [1] (20.0 µM) is -0.438%; in experiment [1] (50.0 µM), 2.89%; in experiment [2], 0%.
As to `O=C(Nc1cccnc1)N(CCN1CCOCC1)c1cccc(Cl)c1`, the inhibition was found to be 24.4% in experiment [1] (20.0 µM), 49.6% in experiment [1] (50.0 µM) and 59.4% in experiment [2].
As to `O=C(NCc1cccnn1)Nc1cccc(-c2ncc3n2CCCC3)c1`, the results for the inhibition in experiment [1] (20.0 µM), in experiment [1] (50.0 µM) and in experiment [2] were -2.92%, -5.29% and 0%, respectively.
As to `Cc1ccc(CN2CCC(CNC(=O)Nc3cn(CC(C)C)c(=O)c4ccccc34)C2)cc1` (stereo not given), the inhibition in experiment [1] (20.0 µM) was -3.01%; in experiment [1] (50.0 µM) it was 0.927%. In experiment [2], this compound showed an IC50 of 92300 nM.
Turning to `CCC(=O)Nc1ccc(N(Cc2ccsc2)C(=O)Cn2nnc3ccccc32)cc1`, the inhibition was 79.7% in experiment [1] (20.0 µM), 89.3% in experiment [1] (50.0 µM) and 78.1% in experiment [2].
Consider `O=C(C(F)Cl)N1CCN(Cc2cccc3ccccc23)CC1` (stereo not given), for which the inhibition in experiment [1] (20.0 µM) came to 20.5%; in experiment [1] (50.0 µM) it was 29.5%; in experiment [2] it was 9.11%.
Regarding `COc1cccc(C(=O)Nc2n[nH]c(SCc3ccc(Cl)cc3)n2)c1`, the inhibition is 8.77% in experiment [1] (20.0 µM) and 32.5% in experiment [1] (50.0 µM). Further, the IC50 in experiment [2] came out at 200 nM.
In the case of `C=CC(=O)N(c1ccc(C(C)(C)C)cc1)C(C(=O)NCCc1cccc(F)c1)c1cncc(O)c1` (stereo not given), the inhibition in experiment [1] (20.0 µM) worked out at 16.1%; in experiment [1] (50.0 µM), 23.5%. Besides, in experiment [2], the IC50 was found to be 26200 nM.
As for `CC(C)Cn1cc(NC(=O)NCCCN2CCC(C)CC2)c2ccccc2c1=O`, the inhibition was -1.82% in experiment [1] (20.0 µM) and -1.61% in experiment [1] (50.0 µM). The half-inhibitory concentration (IC50) in experiment [2] stood at 98200 nM.
As to `O=C1CC(Oc2cc(Cl)cc(N(CCC3CCCCC3)C(=O)Nc3cncc4ccccc34)c2)N1` (stereo not given), the IC50 in experiment [1] worked out at 105 nM; in experiment [2], 1580 nM.
For the compound `CCOc1ccccc1OC1CCN(C(=O)c2c(C)c(=O)[nH]c3ccccc23)C1` (stereo not given), the values for the inhibition in experiment [1] (20.0 µM), in experiment [1] (50.0 µM) and in experiment [2] were 0.342%, 4.57% and 0%, respectively.
Consider `CN(CCC(N)=O)C(=O)C(=O)N1Cc2ccccc2C(c2ccccc2)C1` (stereo not given), for which the inhibition was -0.756% in experiment [1] (20.0 µM), -0.803% in experiment [1] (50.0 µM) and 0% in experiment [2].
Consider `Nc1cncc2c1CCCN2C(=O)Cc1cccc(Cl)c1`, for which the results for the half-inhibitory concentration (IC50) in experiment [1] and in experiment [2] were 32500 nM and 54200 nM, respectively.
Regarding `CC(C)n1cnnc1CNC(=O)C1CCOc2ccccc21` (stereo not given), the inhibition in experiment [1] (20.0 µM) is -4.11%; in experiment [1] (50.0 µM) it was -1.11%; in experiment [2], 0%.
Take `COc1ccc2c(c1F)NC(=O)C2=O`: the inhibition in experiment [1] (20.0 µM) was -1.15%; in experiment [1] (50.0 µM), 3.02%; in experiment [2] it was 7.79%.
Turning to `CO[C@@H]1C[C@@H](COc2cccnc2)N(c2ncccn2)C1` (stereo in doubt), the inhibition in experiment [1] (20.0 µM) is -6.63%; in experiment [1] (50.0 µM), -1.19%; in experiment [2] it was 0%.
On to `O=C(Cc1ccc(Cl)c(Cl)c1)Nc1cncc2ccccc12`, for which the IC50 in experiment [1] is 261 nM; in experiment [2], 132 nM.
Consider `CS(=O)(=O)c1ccc(N2CCNCC2)cc1`, for which the inhibition was -2.52% in experiment [1] (20.0 µM) and 5.05% in experiment [1] (50.0 µM). The same compound had an IC50 in experiment [2] of 83800 nM.
Take `O=C(Cc1cccc(Cl)c1)Nc1cccnc1`: the inhibition in experiment [1] (20.0 µM) came to 24.1%; in experiment [1] (50.0 µM), 40.9%; in experiment [2], 52.4%.
Regarding `N#Cc1ccc(CN2C(=O)C(=O)c3cccc(Br)c32)c(F)c1`, the inhibition was -1.68% in experiment [1] (20.0 µM), -0.391% in experiment [1] (50.0 µM) and 72.1% in experiment [2]. Besides, in experiment [2], the IC50 was found to be 14300 nM.
With `C=CC(=O)N1CC(NCc2c[nH]c3ccc(C#N)cc23)C1`, the inhibition in experiment [1] (20.0 µM) is -2.15%; in experiment [1] (50.0 µM) it was 15.4%; in experiment [2], 0%.
For `O=S(=O)(Cc1noc(C2CC2)n1)Nc1cccnc1` the same measures were -2.48%, -1.33% and 9.43%.
